The values below come from publication PMC4366844, “Biochemical and Pharmacological Characterizations of ESI-09 Based EPAC Inhibitors: Defining the ESI-09 “Therapeutic Window”” (Scientific Reports, 2015).

A short description of data set [1]: Solubility measurement by HPLC analysis. The class given is physicochemical. The method, then: ESI-09 and its analogs were synthesized following the recently reported synthetic procedures. The solubility of the selected compounds was measured by HPLC analysis following the reported protocol.
For data set [2], the target named is T1, EPAC2 (Mus musculus, UniProt Q9EQZ6).
T1 construct: made in house
T1 sequence (Q9EQZ6 1-1011): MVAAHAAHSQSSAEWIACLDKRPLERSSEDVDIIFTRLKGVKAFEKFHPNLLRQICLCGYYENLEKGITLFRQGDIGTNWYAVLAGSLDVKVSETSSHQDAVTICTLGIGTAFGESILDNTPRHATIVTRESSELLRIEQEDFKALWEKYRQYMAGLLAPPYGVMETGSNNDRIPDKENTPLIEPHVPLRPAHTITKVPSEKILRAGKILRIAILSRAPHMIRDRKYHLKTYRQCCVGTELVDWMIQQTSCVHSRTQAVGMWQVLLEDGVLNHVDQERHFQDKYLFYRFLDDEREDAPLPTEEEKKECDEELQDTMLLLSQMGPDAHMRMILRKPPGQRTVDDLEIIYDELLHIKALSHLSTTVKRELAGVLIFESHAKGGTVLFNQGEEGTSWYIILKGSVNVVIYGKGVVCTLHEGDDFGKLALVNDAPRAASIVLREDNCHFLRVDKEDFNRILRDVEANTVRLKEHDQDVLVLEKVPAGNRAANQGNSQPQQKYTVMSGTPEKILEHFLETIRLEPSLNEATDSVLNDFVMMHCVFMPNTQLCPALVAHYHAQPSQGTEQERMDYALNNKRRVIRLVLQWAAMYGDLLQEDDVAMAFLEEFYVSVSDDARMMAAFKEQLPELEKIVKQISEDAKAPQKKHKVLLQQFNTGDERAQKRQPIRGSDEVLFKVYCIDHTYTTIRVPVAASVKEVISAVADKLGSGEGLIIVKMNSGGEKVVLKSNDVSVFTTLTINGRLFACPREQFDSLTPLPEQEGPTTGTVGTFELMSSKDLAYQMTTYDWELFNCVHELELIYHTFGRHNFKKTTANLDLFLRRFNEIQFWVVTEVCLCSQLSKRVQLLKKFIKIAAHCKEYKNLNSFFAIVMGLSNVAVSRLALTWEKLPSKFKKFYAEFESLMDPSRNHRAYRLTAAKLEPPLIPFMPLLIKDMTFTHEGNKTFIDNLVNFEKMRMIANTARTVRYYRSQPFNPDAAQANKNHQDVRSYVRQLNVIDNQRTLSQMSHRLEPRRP
Briefly: In vitro GEF activity assay (Rap1b-BODIPY-GDP), EPAC2. The following applies: for mode of inhibition toward cAMP: cAMP titration with 5 µM ESI-09 or 1 µM HJC0726. The format is biochemical.

Details of data set [3]: method as in Our recent studies. Conditions: ref Our recent studies; cited from earlier work.
Data set [4] has as its system ovalbumin-induced oral tolerance. The following applies: mice, daily dose of 10 mg/kg IP or 50 mg/kg oral gavage; cited from earlier work.
The subject of a further data set is fatal rickettsioses. The following applies: mice, daily dose of 10 mg/kg IP or 50 mg/kg oral gavage; cited from earlier work.
In data set [5] the target is T1, EPAC2. Nature of the data set: Protein thermal denaturation assay (Sypro Orange), EPAC2. How it is done: Thermal denaturation assay was performed using a BioRad CFX96 Touch^TM Real-Time PCR Detection system as described previously. […] Melting temperatures (Tm) were calculated by fitting the sigmoidal melt curve to the Boltzmann equation as described using GraphPad Prism, with R^2 values of >0.99[40].

Data set [6] addresses T1, EPAC2. Nature of the data set: 8-NBD-cAMP competition assay. The format is binding. How it is done: Test compounds at various concentrations were added to the reaction mix, and fluorescence intensity signals from the 8-NBD probe before and after the addition of test compounds was monitored using a SpectaMaxM2 microplate reader (Molecular Devices, Silicon Valley, CA, USA) with excitation/emission wavelengths set at 470/540 nm.

The next data set deals with T2, EPAC1h 149-318 (Homo sapiens, UniProt O95398).
T2 construct: the CBD of human EPAC1 (aa. 149-318); made in house
T2 sequence (O95398 149-318 isoform O95398-3): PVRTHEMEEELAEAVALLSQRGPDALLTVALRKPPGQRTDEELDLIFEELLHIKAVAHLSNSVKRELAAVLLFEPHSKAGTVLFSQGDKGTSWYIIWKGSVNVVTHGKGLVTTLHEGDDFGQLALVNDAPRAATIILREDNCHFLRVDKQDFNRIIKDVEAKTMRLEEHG
Briefly: {15N,1H} HSQC NMR of EPAC1 cAMP binding domain. An excerpt:
In addition to the thermo-unfolding experiments, {^15N, ^1H} Heteronuclear Single Quantum Coherence (HSQC) spectra were acquired to characterize the interaction between ESI-09 and the CBD of human EPAC1 (aa. 149-318) and address whether ESI-09 acts as a non-specific denaturant. The {^15N, ^1H} chemical shifts serve as excellent sensors for protein structure and dynamics as they provide information about the local chemical environment surrounding the amides of every amino acid (except prolines) within the protein. EPAC1h (149-318) has already been extensively analyzed by NMR spectroscopy. It results in HSQC spectra with well-dispersed peaks, which are representative of a fully folded protein (Fig. 5A). […]
EPAC1h 149-318 was expressed and purified using previously documented protocols[24][25][26][27] and dialyzed into NMR buffer (50 mM Tris, 50 mM NaCl, 2 mM EDTA, 2 mM EGTA, 1 mM DTT and 0.02% NaN3, pH 7.6). […] Gradient- and sensitivity- enhanced {^15N, ^1H} heteronuclear single quantum coherence (HSQC) spectra with 128 (t1) and 1024 (t2) complex points and spectral widths of 31.82 and 14.06 ppm for the ^15N and ^1H dimensions, respectively, were recorded with 8 scans and a recycle delay of 1 s. […] All spectra were processed with NMRPipe[41] and analyzed in Sparky[42].

Data set [7] relates to pancreatic ductal adenocarcinoma. Conditions: in vivo administration; cited from earlier work.
The target in the next data set is T3, full-length EPAC1 (Homo sapiens, UniProt O95398).
T3 construct: made in house
T3 sequence (O95398 1-881 isoform O95398-3): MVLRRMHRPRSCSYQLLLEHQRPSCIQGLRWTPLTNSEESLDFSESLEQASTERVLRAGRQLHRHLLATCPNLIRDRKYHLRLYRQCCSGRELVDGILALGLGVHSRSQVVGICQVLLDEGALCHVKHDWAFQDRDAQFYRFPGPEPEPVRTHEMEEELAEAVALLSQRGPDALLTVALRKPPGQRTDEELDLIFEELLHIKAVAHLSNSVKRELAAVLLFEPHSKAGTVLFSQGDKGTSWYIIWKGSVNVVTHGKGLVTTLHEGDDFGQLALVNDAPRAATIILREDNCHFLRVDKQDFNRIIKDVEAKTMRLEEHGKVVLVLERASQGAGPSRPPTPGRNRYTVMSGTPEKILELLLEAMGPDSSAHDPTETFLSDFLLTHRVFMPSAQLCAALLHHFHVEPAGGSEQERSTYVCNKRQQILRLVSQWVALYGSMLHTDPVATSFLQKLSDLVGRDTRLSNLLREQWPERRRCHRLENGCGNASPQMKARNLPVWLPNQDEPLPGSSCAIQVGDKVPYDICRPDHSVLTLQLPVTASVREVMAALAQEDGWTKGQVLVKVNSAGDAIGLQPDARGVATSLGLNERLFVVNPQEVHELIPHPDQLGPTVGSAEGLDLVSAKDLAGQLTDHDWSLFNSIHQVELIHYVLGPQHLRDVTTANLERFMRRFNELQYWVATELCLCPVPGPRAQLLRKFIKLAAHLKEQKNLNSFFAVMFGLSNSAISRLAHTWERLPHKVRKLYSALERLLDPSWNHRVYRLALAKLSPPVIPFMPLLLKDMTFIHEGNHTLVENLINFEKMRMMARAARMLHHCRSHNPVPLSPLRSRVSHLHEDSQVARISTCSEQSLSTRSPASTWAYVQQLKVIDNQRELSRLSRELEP
Briefly: In vitro GEF activity assay (Rap1b-BODIPY-GDP), EPAC1. The class given is biochemical. Conditions: vs ESI-09. The source says: The guanine nucleotide exchange activity of EPAC proteins can be biochemically determined using a coupled exchange assay, in which Rap1 loaded with a fluorescent GDP analog, 2′-/3′-O-(N′-methylanthraniloyl)guanosine-5′-O-diphosphate (MANT-GDP), is used as the substrate. The exchange of Rap1-bound MANT-GDP by free unlabeled GDP leads to a decrease in fluorescence as MANT-GDP contains an environment sensitive fluorophore, MANT, whose fluorescence intensity increases upon binding to Rap1. However, the MANT-GDP based GEF assay is not well suited for ESI-09 analogs because they absorb lights within the excitation emission wavelengths of the fluorophore.
Recombinant full-length human EPAC1, mouse EPAC2 and C-terminal truncated Rap1B(1-167) were purified as described previously.
In vitro EPAC GEF activity was measured as previously described with the exception that purified Rap1B(1-167) was loaded with BODIPY-GDP instead of MANT-GDP[39]. […] The exchange reaction was monitored using a Spectramax M2 Plate Reader (Molecular Devices) with the excitation and emission wavelengths set at 485 and 515 nm, respectively. […]

Where [8] appears, read: water, read-out: Solubility in water (converted).
Where [9] appears, read: 50 nM EPAC2, 60 nM 8-NBD-cAMP, read-out: IC50, potency in competing with 8-NBD-cAMP binding to EPAC2.

Values after ≈ are worked out from the molar mass of the structure shown. Values joined by “and” are separate entries in the source; they are usually repeats but may differ in a detail not shown here. Identical values can stand only once. “Also recorded” adds a separate entry of the source. Like-named read-outs stand apart in the source and are kept apart here.

By solubility is commonly meant the concentration that dissolves in the medium under given conditions. The IC50 is the midpoint of a concentration-inhibition curve. As for `CC(C)(C)c1cc(C(=O)C(C#N)=NNc2cccc(Cl)c2)no1` [ESI-09, 3-[5-(tert-butyl)isoxazol-3-yl]-2-[2-(3-chlorophenyl) hydrazono] -3-oxopropanenitrile], the solubility in data set [1] (ethanol, organic solvent or mixture, ethanol, read-out: Solubility in ethanol (converted)) is 15000 µg/mL and 45300 µM; in data set [1] (setting [8]), 5.95 ± 0.83 µg/mL (≈ 18 µM). In addition, the “mode of inhibition toward cAMP” value at EPAC2 [2] was “reversible competitive EPAC2 inhibitors”. Also, the bioavailability entry in [3] was “excellent bioavailability”. In addition, the “effect on ovalbumin-induced oral tolerance” value in data set [4] is given as “compromising ovalbumin-induced oral tolerance”. For the same molecule, the “effect in fatal rickettsioses” value with fatal rickettsioses is “protecting mice from fatal rickettsioses”. In addition, the “effect on Tm of EPAC2” value at EPAC2 [5] (ESI-09 1-20 µM, no cAMP) is listed as “didn't shift the Tm to lower temperature; also recorded: no significant difference in thermo-denaturation”; on EPAC2 [5] (ESI-09 in the presence of 100 µM cAMP), “didn't lead to further changes in Tm”. Further, the IC50 at EPAC2 [6] (setting [9]) is 9 ± 1.2 µM. The “effect on HSQC spectrum of EPAC1h 149-318” value on EPAC1h 149-318 (50 μM ESI-09, 100 μM protein) is given as “Only minor chemical shift changes”; at EPAC1h 149-318 (500 μM ESI-09, 100 μM protein), “almost every peak broadens beyond detection”. Besides, the “effect on pancreatic ductal adenocarcinoma invasion and metastasis” value in [7] was “inhibits pancreatic ductal adenocarcinoma invasion and metastasis”.

For the molecule `CC(C)(C)c1cc(C(=O)/C(C#N)=N/Nc2ccccc2Cl)no1` [HJC0693], on EPAC2 [6] (setting [9]), the IC50 worked out at 28.3 ± 4 µM.

For `CC(C)(C)c1cc(C(=O)/C(C#N)=N/Nc2ccc(Cl)cc2)no1` [HJC0694], at EPAC2 [6] (setting [9]), the IC50 worked out at 26.5 ± 4.1 µM.

With `CC(C)(C)c1cc(C(=O)/C(C#N)=N/Nc2ccccc2)no1` [HJC0695], the IC50 at EPAC2 [6] stood at 59.8 ± 9.4 µM.

For `CC(C)(C)c1cc(C(=O)/C(C#N)=N/Nc2cc(Cl)ccc2Cl)no1` [HJC0696], the IC50 on EPAC2 [6] (setting [9]) was 7.3 ± 1.2 µM.

As to `CC(C)(C)c1cc(C(=O)/C(C#N)=N/Nc2cc(Cl)cc(Cl)c2)no1` [HJC0726], the solubility in data set [1] (ethanol, organic solvent or mixture, read-out: Solubility in ethanol (converted)) was 6800 µg/mL and 18600 µM; in data set [1] (setting [8]) it was 45.4 µg/mL and 124 µM. The “mode of inhibition toward cAMP” value on EPAC2 [2] is on record as “reversible competitive EPAC2 inhibitors”. For the same molecule, at EPAC2 [2] (vs ESI-09), the “potency relative to ESI-09 in inhibiting EPAC2” value was “five-fold more potent”. Moreover, at EPAC2 [6] (setting [9]), the IC50 amounted to 1.9 ± 0.3 µM. Besides, the “increase in potency relative to ESI-09 in the 8-NBD-cAMP competition assay” value on EPAC2 [6] (vs ESI-09) is recorded as 5 fold. Moreover, on full-length EPAC1, the “potency relative to ESI-09 in inhibiting EPAC1” value is reported as “five-fold more potent”.

`CC(C)(C)c1cc(C(=O)/C(C#N)=N/Nc2cccc(Cl)c2Cl)no1` [HJC0750]: at EPAC2 [6] (setting [9]), the IC50 amounted to 35.6 ± 7.8 µM.

For the molecule `CC(C)(C)c1cc(C(=O)/C(C#N)=N/Nc2ccc(Cl)c(Cl)c2)no1` [HJC0777], the IC50 on EPAC2 [6] (setting [9]) amounted to 3 ± 0.6 µM.

For the molecule `Nc1ncnc2c1ncn2[C@@H]1O[C@@H]2COP(=O)(O)O[C@H]2[C@H]1O` [cAMP, reference compound], at EPAC2 [5] (in the presence of 100 µM cAMP (about 48°C without)), the “melting temperature Tm of EPAC2” value was “around 46 °C”.
